According to paper PMC9692523, “Exposure to (Poly)phenol Metabolites after a Fruit and Vegetable Supplement Intake: A Double-Blind, Cross-Over, Randomized Trial” (Nutrients, 2022):

How the values were obtained:
[1] = Urinary excretion of phenolic metabolites over 48 h after one 450 mg capsule of the supplement (UHPLC-ESI-MS/MS); format: in vivo, human; conditions: urine, n = 10, mean ± SEM; for Urinary excretion 0 (h): baseline (day before)
Procedure: (§1) This study was designed as a 3-week randomized, double-blind, cross-over clinical trial. Eligible participants were randomized using simple block randomization of 1:1. Once enrolled, subjects received either one 450 mg capsule of the test supplement or one 450 mg capsule of placebo on the first day of the study (Phase I: D1). After three days of sampling, volunteers started a wash-out period of 1 week and were then enrolled for the second test Phase with ingestion of the opposite supplement (Phase II: D1) (Figure 1). The placebo product was 100% maltodextrin, which was (poly)phenol-free.
Urine samples were collected the day before (baseline) and during the 48 h period following the supplementation (T0-T3, T3-T6, T6-T10, T10-T14, T14-T24, T24-T32 and T32-T48) (Figure 2). Urine volumes at each collection period were registered, and samples were aliquoted and stored at −80 °C until further processing.
Then, urine samples were prepared as previously reported by Brindani and colleagues. Briefly, urine samples were defrosted, vortexed, diluted in 0.1% formic acid in water (1:4, v/v) and centrifuged at 12,000 rpm for 5 min. Finally, urine samples were filtered (0.45 µm nylon filter) prior to UHPLC-ESI-MS/MS analysis.
(§2) Plasma and urine samples were analyzed by a UHPLC DIONEX Ultimate 3000 equipped with a triple quadrupole TSQ Vantage (Thermo Fisher Scientific Inc) fitted with a heated ESI (H-ESI) (Thermo Fisher Scientific Inc) probe, as previously reported. Separations were carried out by means of a Kinetex EVO C18 (100 × 2.1 mm) column, 2.6 µm particle size (Phenomenex, Torrance, CA, USA), installed with a pre-column (Phenomenex). Mobile phase A was 0.2% formic acid in water, and mobile phase B was acetonitrile containing 0.2% formic acid. The gradient started with 5% B, and isocratic conditions were maintained for 0.5 min, reaching 95% B after 6.5 min, followed by 1 min at 95%. The starting gradient was then immediately re-established and maintained for 5 min to re-equilibrate the column. The flow rate was 0.4 mL/min, the injection volume was 5 µL and the column temperature was set at 40 °C.
(§3) The applied MS method consisted of the selective determination of each target precursor ion by the acquisition of characteristic product ion in selective reaction monitoring (SRM) mode (Supplemental Table S2). For all the analyses, the spray voltage was set at 3 kV, the vaporizer temperature at 300 °C and the capillary temperature operated at 270 °C. The sheath gas flow was 50 units, and auxiliary gas pressure was set to 10 units. Ultra-high purity argon gas was used for collision-induced dissociation (CID). The S-lens values were defined for each compound based on infusion parameter optimization. Conversely, for those compounds not available for infusion, the S-lens values were set using the values obtained for the chemically closest available standards. Quantification was performed with calibration curves of standards when available or using the most structurally similar compound. Data processing was performed using Xcalibur software (Thermo Scientific Inc., San Jose, CA, USA).
All data were expressed as mean values ± standard deviation (SD) and mean values ± standard error to the mean (SEM) for metabolites in blood and urine samples. PKSolver add-on program in Microsoft Excel was used to determine pharmacokinetic parameters of blood phenolic metabolites, including time to reach the maximum plasma concentration (Tmax, h), maximum plasma concentration (Cmax, nmol/L), area under the curve (AUC0-24, nmol/L·h), and time of presence of metabolites in circulation (Tpres, h). Tpres was calculated by taking the time interval between the first appearance and the last appearance of the considered metabolite. Coefficient of variation (CV) was evaluated for each metabolite and multivariate principal component analysis (PCA) was applied to explore the inter-individual variation in the urinary metabolites among the participants. […]

[2] = Plasma pharmacokinetics of phenolic metabolites after one 450 mg capsule of the supplement (UHPLC-ESI-MS/MS); format: in vivo, human; conditions: for Cmax / Tmax / Tpres (time of presence of metabolites in circulation): n = 10, mean ± SEM; for Tpres (time of presence of metabolites in circulation): interval between first and last appearance; for AUC0-24: supplemented volunteers (n = 10), 450 mg capsule, mean ± SEM
Procedure: as §1
On the day of the test (D1), volunteers visited the Research Center after an overnight fast. Blood was collected at T0 to determine baseline levels of plasma phenolic metabolites. Then, volunteers were invited to take the 450 mg capsule of the supplement or the placebo with 250 mL of still water (Figure 2). Additional blood samples were then collected at 1 h (D1, T1), 2 h (D1, T2), 3 h (D1, T3), 4 h (D1, T4), 5 h (D1, T5), 6 h (D1, T6), 8 h (D1, T8), 10 h (D1, T10) and 24 h (D2, T24) after capsule intake. Blood was taken from the basilica vein and centrifuged at 3000 rpm for 10 min at 4 °C. Plasma was immediately extracted and frozen at −80 °C for further analysis.
Plasma samples were then extracted using a solid phase extraction (SPE) method, as previously reported by Castello and colleagues. Briefly, 350 µL of plasma samples was diluted (1:1) with phosphoric acid 4% (v/v). After plate activation, 600 µL of the diluted plasma samples was loaded on a 96 well µ-SPE HLB (Oasis® HLB µElution Plate 30 µm, Waters, Milford, Massachusetts, MA, USA). Samples were washed with 200 µL of water and 200 µL of 0.2% (v/v) acetic acid. Finally, samples were eluted with 60 µL of methanol for UHPLC-ESI-MS/MS analysis.
as §2, §3
All data were expressed as mean values ± standard deviation (SD) and mean values ± standard error to the mean (SEM) for metabolites in blood and urine samples. […]

Row | Urinary excretion 0 (h) [1] [µg] | Urinary excretion 0–3 (h) [1] [µg] | Urinary excretion 3–6 (h) [1] [µg] | Urinary excretion 6–10 (h) [1] [µg] | Urinary excretion 10–14 (h) [1] [µg] | Urinary excretion 14–24 (h) [1] [µg] | Urinary excretion Total (0–48 h) [1] | Cmax [2] [nM] | Tmax [2] [h] | Tpres (time of presence of metabolites in circulation) [2] [h] | AUC0-24 [2] [µM·h] | Urinary excretion 24–32 (h) [1] [µg] | Urinary excretion 32–48 (h) [1] [µg] | Time of first plasma concentration (absorption) peak ([2]; after supplement intake) [h] | SMILES
1 | 1.13 ± 1.13 | 14.20 ± 4.88 | 24.68 ± 5.82 | 12.53 ± 4.10 | 3.10 ± 1.12 | 4.51 ± 1.34 | 60.16 ± 9.86 µg |  |  |  |  |  |  |  | O=C(O)c1ccc(O)c(OC2OC(C(=O)O)C(O)C(O)C2O)c1 (stereo not shown) [compound 35]
2 | 5.34 ± 5.34 | 0.00 ± 0.00 | 101.70 ± 51.36 | 316.86 ± 132.04 | 199.53 ± 88.98 | 624.93 ± 108.36 | 1595.23 ± 260.71 µg | 15 ± 5.61 | 12.78 ± 2.85 | 14.44 ± 2.42 | 0.12555 ± 0.04768 | 281.58 ± 60.75 | 65.29 ± 25.62 |  | O=C1CCC(Cc2cc(O)cc(OC3OC(C(=O)O)C(O)C(O)C3O)c2)O1 (stereo not shown) [compound 10]
3 | 96.20 ± 96.20 | 85.67 ± 85.67 |  |  | 287.94 ± 287.94 | 262.06 ± 138.26 | 1408.57 ± 544.97 µg | 443 ± 99.3 | 7.13 ± 0.77 | 7.50 ± 2.38 | 1.55429 ± 0.64433 |  | 676.70 ± 383.40 |  | O=C(O)CCc1cccc(O)c1.O=C(O)CCc1cccc(O)c1 [compound 40]
4 | 344.60 ± 186.50 | 166.29 ± 126.77 | 2548.76 ± 1207.06 | 2277.16 ± 795.52 | 919.49 ± 314.48 | 3618.13 ± 985.44 | 11,610.60 ± 1923.81 µg | 40 ± 16.9 | 7.00 ± 0.75 | 12.15 ± 1.84 | 0.1417 ± 0.05037 | 1346.37 ± 481.02 | 389.78 ± 215.48 |  | O=C1CCC(Cc2ccc(OS(=O)(=O)O)c(O)c2)O1 (stereo not shown) [compound 21]
5 |  |  |  | 5.31 ± 5.04 | 39.56 ± 37.53 | 144.45 ± 90.90 | 295.17 ± 185.26 µg |  |  |  |  | 74.85 ± 48.79 | 30.99 ± 29.40 |  | O=C(O)[C@H]1O[C@@H](Oc2ccc3c(c2)oc(=O)c2ccccc23)[C@H](O)[C@@H](O)[C@@H]1O [compound 44]
6 | 14.48 ± 5.94 | 4.02 ± 2.90 | 20.07 ± 4.27 | 28.56 ± 5.46 | 9.57 ± 2.19 | 30.72 ± 8.04 | 148.81 ± 14.88 µg | 19.9 ± 2.31 | 7.11 ± 0.90 | 17.83 ± 1.54 | 0.15205 ± 0.02784 | 19.07 ± 5.57 | 22.33 ± 5.83 |  | COc1ccc(C2CC(=O)c3c(O)cc(OC4OC(C(=O)O)C(O)C(O)C4O)cc3O2)cc1O (stereo not shown) [compound 28]
7 |  |  |  |  |  |  |  | 43.6 ± 7.34 | 2.10 ± 0.46 | 13.45 ± 2.80 | 0.19606 ± 0.03272 |  |  | 1.38 ± 0.18 | O=C(O)c1ccc(O)c(OS(=O)(=O)O)c1 [compound 45]
